Source: patent US20090247646A1, “USE OF RESVERATROL AND DERIVATIVES THEREOF FOR PROMOTING THE WELLNESS STATE IN MAMMALS” (priority 2006, published 2009)
Values joined by “and” are separate entries in the source; they are usually repeats but may differ in a detail not shown here. Equal values may be shown once.

Test system: gene expression in heart tissue
Assay: Genome-wide gene expression in heart tissue of old mice fed a resveratrol-supplemented diet (Affymetrix Mouse Genome 430 2.0 array)
Format: in vivo
[1] = anaphase-promoting complex subunit 5, Genebank ID AK003821
[2] = calreticulin 3, Genebank ID AI324734
[3] = casein kinase II, alpha 1 polypeptide, Genebank ID BB283759
[4] = cathepsin B, Genebank ID M14222
[5] = cathepsin Z, Genebank ID NM_022325
[6] = cylindromatosis (turban tumor syndrome), Genebank ID AK013508
[7] = dual specificity phosphatase 6, Genebank ID NM_026268
[8] = dynein, cytoplasmic, heavy chain 1, Genebank ID NM_030238
[9] = dystrophia myotonica kinase, B15, Genebank ID AW108486
[10] = eukaryotic translation elongation factor 2, Genebank ID BC007152
[11] = eukaryotic translation initiation factor 2, subunit 3, structural gene X-linked, Genebank ID NM_012010
[12] = eukaryotic translation initiation factor 3, subunit 10 (theta), Genebank ID AW701127
[13] = eukaryotic translation initiation factor 4, gamma 1, Genebank ID BF227830
[14] = eukaryotic translation initiation factor 4A1, Genebank ID BI656407
[15] = eukaryotic translation initiation factor 4E like 3, Genebank ID AI449084
[16] = expressed sequence AI663987, Genebank ID BB764994
[17] = expressed sequence AW319487, Genebank ID NM_054085
[18] = f-box only protein 9, Genebank ID AK018482
[19] = f-box only protein 9, Genebank ID NM_023605
[20] = furin (paired basic amino acid cleaving enzyme), Genebank ID NM_011046
[21] = gene trap locus 6, Genebank ID BG923744
[22] = glutamyl-prolyl-tRNA synthetase, Genebank ID BM238943
[23] = golgi associated, gamma adaptin ear containing, ARF binding protein 3, Genebank ID BB501734
[24] = heat shock protein 1, beta, Genebank ID BI154147
[25] = homocysteine-inducible, endoplasmic reticulum stress-inducible, ubiquitin-like domain member 1, Genebank ID AI835088
[26] = homocysteine-inducible, endoplasmic reticulum stress-inducible, ubiquitin-like domain member 1, Genebank ID NM_022331
[27] = insulin degrading enzyme, Genebank ID AV027702
[28] = isoprenylcysteine carboxyl methyltransferase, Genebank ID BF462080
[29] = large tumor suppressor 2, Genebank ID BE986745
[30] = lipocalin 7, Genebank ID BC005738
[31] = membrane metallo endopeptidase [BLAST], Genebank ID AV174022
[32] = methionyl aminopeptidase 1, Genebank ID BG064851
[33] = microtubule associated serine/threonine kinase 2, Genebank ID NM_008641
[34] = mitochondrial ribosomal protein L9, Genebank ID AK021196
[35] = mitochondrial ribosomal protein L27, Genebank ID NM_053161
[36] = mitochondrial ribosomal protein L43, Genebank ID NM_053164
[37] = mitogen activated protein kinase kinase kinase 4, Genebank ID U11548
[38] = myotubularin related protein 1, Genebank ID BB381813
[39] = myotubularin related protein 6, Genebank ID BC020019
[40] = neural precursor cell expressed, developmentally down-regulted gene 4, Genebank ID BG073415
[41] = proteasome (prosome, macropain) subunit, alpha type 2, Genebank ID NM_008944
[42] = protein kinase inhibitor, alpha, Genebank ID AK010212
[43] = protein kinase, interferon inducible double stranded RNA dependent activator, Genebank ID NM_011871
[44] = protein phosphatase 1B, magnesium dependent, beta isoform, Genebank ID AJ271833
[45] = protein tyrosine phosphatase 4a2, Genebank ID AW495875
[46] = protein tyrosine phosphatase 4a3, Genebank ID AK014601
[47] = protein tyrosine phosphatase, non-receptor type 21, Genebank ID AW987375
[48] = protein tyrosine phosphatase-like (proline instead of catalytic arginine), member a, Genebank ID BB014781
[49] = puromycin-sensitive aminopeptidase, Genebank ID AK010446
[50] = ribonuclease P2, Genebank ID BG069849
[51] = ribosome binding protein 1, Genebank ID AK019964
[52] = ring finger protein 13, Genebank ID NM_011883
[53] = sarcolemma associated protein, Genebank ID NM_032008
[54] = serum/glucocorticoid regulated kinase, Genebank ID NM_011361
[55] = sialyltransferase 10 (alpha-2,3-sialyltransferase VI), Genebank ID NM_018784
[56] = suppressor of initiator codon mutations, related sequence 1 (S. cerevisiae), Genebank ID BI693609
[57] = synaptojanin 2 binding protein, Genebank ID AK008254
[58] = tousled-like kinase 1, Genebank ID BM244995
[59] = transferrin receptor, Genebank ID AK011596
[60] = transient receptor potential cation channel, subfamily M, member 7, Genebank ID AV320241
[61] = tumor rejection antigen gp96, Genebank ID BE995678
[62] = ubiquitin protein ligase E3 component n-recognin 1, Genebank ID BQ173927
[63] = ubiquitin specific protease 3, Genebank ID BM936366
[64] = ubiquitin specific protease 10, Genebank ID NM_009462
[65] = ubiquitin-conjugating enzyme E2D 3 (UBC4/5 homolog, yeast), Genebank ID AK009276

SMILES: Oc1ccc(/C=C/c2cc(O)cc(O)c2)cc1 [resveratrol, 3,4′,5-Trihydroxy-trans-stilbene]
- share of genes that resembled or exceeded the expression level of the young group (among genes changed by resveratrol treatment, heart): 58.1%
- % of res effect [1]: 74.85%
- Median RES [1]: 33166
- Median RES (basic leucine zipper and W2 domains 1, Genebank ID AV144956 (three lines), listed as RES): 19500 and 38679 and 25745
- % of res effect (basic leucine zipper and W2 domains 1, Genebank ID AV144956 (three lines), listed as res): 83.81% and 115.0685% and 138.536%
- % of res effect (calnexin, Genebank ID BI653492): 100.0356%
- Median RES (calnexin, Genebank ID BI653492): 30204
- % of res effect [2]: 114.042%
- Median RES [2]: 8927
- % of res effect [3]: 134.9706%
- Median RES [3]: 5588
- % of res effect [4]: 76.17%
- Median RES [4]: 194089
- % of res effect [5]: 116.4892%
- Median RES [5]: 43097
- % of res effect (cullin 3, Genebank ID AV273804): 77.09%
- Median RES (cullin 3, Genebank ID AV273804): 22604
- % of res effect [6]: 103.8541%
- Median RES [6]: 8255
- expression of genes involved in protein modification (down-regulated in the group of old animals, resveratrol group): these effects were reversed
- % of res effect [7]: 107.0693%
- Median RES [7]: 13740
- % of res effect [8]: 152.317%
- Median RES [8]: 30053
- % of res effect [9]: 145.8017%
- Median RES [9]: 62794
- % of res effect [10]: 164.0928%
- Median RES [10]: 165689
- % of res effect [11]: 52.7%
- Median RES [11]: 10650
- % of res effect [12]: 107.144%
- Median RES [12]: 55723
- % of res effect [13]: 137.7081%
- Median RES [13]: 73196
- % of res effect [14]: 101.3515%
- Median RES [14]: 71501
- % of res effect [15]: 79.59%
- Median RES [15]: 14990
- % of res effect (eukaryotic translation initiation factor 4E, Genebank ID BB406487 (two lines), listed as res): 101.5818% and 143.9243%
- % of res effect [16]: 178.7778%
- Median RES [16]: 12520
- % of res effect [17]: 126.3056%
- Median RES [17]: 19940
- % of res effect [18]: 67.8%
- Median RES [18]: 6555
- % of res effect [19]: 158.6897%
- Median RES [19]: 48649
- % of res effect [20]: 190.9945%
- Median RES [20]: 8279
- % of res effect [21]: 134.4155%
- Median RES [21]: 40130
- % of res effect [22]: 85.98%
- Median RES [22]: 16720
- % of res effect [23]: 171.8414%
- Median RES [23]: 5532
- % of res effect [24]: 153.7873%
- Median RES [24]: 150912
- % of res effect [25]: 127.2443%
- Median RES [25]: 90964
- % of res effect [26]: 133.1523%
- Median RES [26]: 107786
- % of res effect [27]: 106.9366%
- Median RES [27]: 25035
- % of res effect [28]: 160.1528%
- Median RES [28]: 6260
- % of res effect [29]: 56.11%
- Median RES [29]: 6754
- % of res effect [30]: 179.6828%
- Median RES [30]: 14280
- % of res effect [31]: 119.1558%
- Median RES [31]: 8513
- % of res effect [32]: 80.68%
- Median RES [32]: 10496
- % of res effect [33]: 161.6802%
- Median RES [33]: 45140
- % of res effect [34]: 80.96%
- Median RES [34]: 25890
- % of res effect [35]: 182.0376%
- Median RES [35]: 91619
- % of res effect [36]: 104.1651%
- Median RES [36]: 61436
- % of res effect [37]: 124.4234%
- Median RES [37]: 9718
- % of res effect [38]: 78.35%
- Median RES [38]: 14340
- % of res effect [39]: 86.67%
- Median RES [39]: 16336
- % of res effect [40]: 52.89%
- Median RES [40]: 86633
- share of age-changed genes changed in the direction of the group of younger adult mice (of 1285 genes, heart): 45.5%
- % of res effect [41]: 104.7586%
- Median RES [41]: 139883
- % of res effect [42]: 59.34%
- Median RES [42]: 40073
- % of res effect [43]: 171.5674%
- Median RES [43]: 13990
- % of res effect [44]: 63.71%
- Median RES [44]: 52488
- % of res effect [45]: 71.59%
- Median RES [45]: 200548
- % of res effect [46]: 210.2152%
- Median RES [46]: 52165
- % of res effect [47]: 218.6485%
- Median RES [47]: 4135
- % of res effect [48]: 76.7738%
- Median RES [48]: 98966
- % of res effect [49]: 212.0408%
- Median RES [49]: 19697
- expression of genes related to protein synthesis and protein folding (reduced in old animals, old animals fed resveratrol-supplemented diet): upregulated to or close to the level found in young animals
- % of res effect [50]: 103.1963%
- Median RES [50]: 23730
- % of res effect [51]: 152.3511%
- Median RES [51]: 37971
- % of res effect [52]: 142.3463%
- Median RES [52]: 33170
- % of res effect [53]: 86.14%
- Median RES [53]: 11160
- Median RES (serine/threonine kinase 17b (apoptosis-inducing), Genebank ID AV173139 (two lines), listed as RES): 8039 and 12069
- % of res effect (serine/threonine kinase 17b (apoptosis-inducing), Genebank ID AV173139 (two lines), listed as res): 97.38% and 163.165%
- % of res effect [54]: 173.4519%
- Median RES [54]: 72667
- % of res effect [55]: 87.76%
- Median RES [55]: 16650
- % of res effect [56]: 80.5962%
- Median RES [56]: 203121
- % of res effect [57]: 121.5779%
- Median RES [57]: 40710
- number of genes at a level of 80-90% compared to the young group (text b59, heart): 62
- number of genes that reached a level of 70-80% (text b59, heart): 53
- % of res effect [58]: 79.5126%
- Median RES [58]: 4589
- % of res effect [59]: 54.0373%
- Median RES [59]: 86773
- % of res effect [60]: 129.8764%
- Median RES [60]: 19508
- % of res effect [61]: 94.11%
- Median RES [61]: 53900
- % of res effect [62]: 97.81%
- Median RES [62]: 7571
- % of res effect [63]: 151.8677%
- Median RES [63]: 9725
- % of res effect [64]: 186.31%
- Median RES [64]: 12090
- % of res effect [65]: 69.45%
- Median RES [65]: 40250
- number of genes changed in the direction of the group of younger adult mice (within the 1285 genes significantly changed between young and old mice (at least 1.25-fold, p<0.01), heart): 585
